Experimental data from patent publication US20240191217A1, “CAS10-BASED ASSAY FOR NUCLEIC ACID DETECTION” (priority 2021, published 2024).

Tests used:
Assay type in all cases: biochemical
VmeNucC [1] = molecular target: T1, VmeNucC (Vibrio metoecus, UniProt P0DUD6); experiment: Effect of ATP on NucC nuclease activity (fluorescent DNA duplex reporter)
T1 construct: His8 (TEV-cleavable, vector pEV5HisTEV) (N, cleaved yes); made in house; host or cells: E. coli C43(DE3)
Description: FIG. 4: Factors influencing NucC activity. Relative activities were determined by comparing the relative increase in fluorescence signal over time. A: Effect of NaCl concentration. B: NucC activity in different buffers. C: Effect of ATP on NucC nuclease activity.
(§1) All assays were performed on a FluoStar Omega plate reader (BMG Labtech) using fluorescence detection (λex/em 544/590 nm) and Corning black, non-binding half-area 96-well plates. […] Fluorescence was measured in 30 s intervals at 37° C. for up to 60 min. […] To determine limit of detection, the means of fluorescence intensities ranging between 28 and 32 min was analysed by one-way ANOVA and for multiple comparisons the Brown-Forsythe and Welch ANOVA test was applied. […] Relative activities between reaction conditions was determined by comparing the relative rates of the reactions. Rates were assumed to be proportional to the change in fluorescence signal over time and calculated from the slopes of linear regression analysis. Target specificity was analysed by extracting the time point (Tt) when the fluorescence intensity crossed a threshold value. The threshold value was set to ⅛^th of the maximal measured fluorescence signal of the reference target. […]

VmeNucC [2] = molecular target: T1, VmeNucC; experiment: NucC assay using synthetic cA3 as activator; settings: FIG. 6
Description: FIG. 6: NucC assay using synthetic cA3 as activator. A: Selected fluorescence signal curves. B: The fluorescence intensities of measurements from 28-30 min reaction time were used for one-way ANOVA analysis. Multiplicity adjusted P values were calculated by Dunnett's multiple comparisons test (N=7). The assay was performed in duplicate. C: selected data from B with expanded y scale. ns: not significant, P value>0.05; ***: P value<0.001; ****: P value<0.0001.
as §1, with “value.” for “value. The threshold value was set to ⅛^th of the maximal measured fluorescence signal of the reference target.”

NucC = molecular target: T2, NucC (Vibrio metoecus, UniProt P0DUD6); experiment: Degradation of cA3 by NucC, liquid chromatography with UV detection; settings: 100 μM cA3 with 0.5 μM NucC in reaction buffer for 60 min
T2 construct: His8 (TEV-cleavable, vector pEV5HisTEV) (N, cleaved yes); made in house; host or cells: E. coli C43(DE3)
Description: LC chromatograms with UV monitoring at 254 nm showing the reaction of 100 μM cA3 with 0.5 μM NucC under assay conditions after 15 and 60 min. A reaction in which NucC had been omitted was allowed to proceed for 60 min.
Some Csx1/Csm6 family proteins have an intrinsic “ring nuclease” activity for the degradation of their cOA activator—an activity that is probably important in vivo for the control of the CRISPR mediated immune response (9). In the context of assay development however, this is an undesirable characteristic. Furthermore, it is difficult to remove this activity from Csx1/Csm6 family proteins as the activity is closely linked with cOA binding and/or with the HEPN ribonuclease activity (18, 19). To determine whether NucC degrades its cA3 activator, we incubated 100 μM cA3 with […] NucC in reaction buffer for 60 min and monitored the products by liquid chromatography and UV detection (FIG. 5) after removal of the enzyme by ultracentrifugation (MWCO 3 kDa). […] This is perhaps not surprising given that NucC is a double stranded DNase and the activator is a cyclic ribonucleotide.

T1 sequence (P0DUD6 whole entry): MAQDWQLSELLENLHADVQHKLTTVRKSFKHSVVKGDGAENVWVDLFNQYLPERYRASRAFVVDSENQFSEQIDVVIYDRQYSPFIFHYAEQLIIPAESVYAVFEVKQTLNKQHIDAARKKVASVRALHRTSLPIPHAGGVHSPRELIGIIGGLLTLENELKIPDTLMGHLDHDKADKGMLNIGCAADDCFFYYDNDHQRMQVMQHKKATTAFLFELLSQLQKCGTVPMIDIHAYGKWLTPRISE
T2 sequence (P0DUD6 whole entry): as above

Row | Structure (SMILES) | NucC activity retained (VmeNucC [1]; ATP concentration of 2 mM) [%] | effect of ATP on NucC (VmeNucC [1]; ATP concentrations above 500 μM) | amount of synthetic cyclic nucleotide giving a clear signal (VmeNucC [2]) [pM] | depletion of cA3 by NucC (NucC)
1 | Nc1ncnc2c1ncn2[C@@H]1O[C@H](COP(=O)(O)OP(=O)(O)OP(=O)(O)O)[C@@H](O)[C@H]1O [ATP] | 50 | minor adverse effect |  | 
2 | Nc1ncnc2c1ncn2[C@@H]1O[C@@H]2COP(=O)(O)O[C@H]3[C@@H](O)[C@H](n4cnc5c(N)ncnc54)O[C@@H]3COP(=O)(O)O[C@H]3[C@@H](O)[C@H](n4cnc5c(N)ncnc54)O[C@@H]3COP(=O)(O)O[C@H]2[C@H]1O [cA3, cyclic tri-adenylate] |  |  | ≤ 10 | no significant depletion
